The conditions of data set [1]: Crystal; DTA.
Data set [2] in a line: Molar enthalpy of transition or fusion. To be noted: Crystal; DSC.

Molecules are shown by their SMILES. ± gives the expanded uncertainty stated by the source.

`O=C1OC[C@H]2[C@@H]1N(Cc1ccccc1)C(=O)N2Cc1ccccc1`: in data set [1], the Normal melting temperature was found to be 118.70 ± 1.1 °C. Besides, the “Molar enthalpy of transition or fusion” value in data set [2] was found to be 7.24 ± 0.454 kcal/mol.

The record behind these values is the NIST ThermoML archive (doi:10.1021/acs.jced.5b00857).
